Measurements from ChEMBL document CHEMBL1275492, “In vitro activity of ceftobiprole against pathogens from two phase 3 clinical trials of complicated skin and skin structure infections” (2008).
In brackets after ≈: the same amount, converted by molar mass.

Legend:
Format in all cases: functional
[1] = system: Streptococcus constellatus; test: Antibacterial activity against Streptococcus constellatus obtained from complicated skin and skin structure infections by agar dilution method
[2] = system: Staphylococcus cohnii; test: Antibacterial activity against coagulase-negative Staphylococcus cohnii obtained from complicated skin and skin structure infections by agar dilution method
[3] = system: Staphylococcus intermedius; test: Antibacterial activity against Staphylococcus intermedius obtained from complicated skin and skin structure infections by agar dilution method
[4] = system: Staphylococcus hominis; test: Antibacterial activity against coagulase-negative Staphylococcus hominis obtained from complicated skin and skin structure infections by agar dilution method
[5] = system: Lactococcus lactis; test: Antibacterial activity against Lactococcus lactis obtained from complicated skin and skin structure infections by agar dilution method
[6] = system: Staphylococcus aureus; test: Antibacterial activity against Staphylococcus aureus obtained from complicated skin and skin structure infections by agar dilution method
[7] = system: Staphylococcus lugdunensis; test: Antibacterial activity against coagulase-negative Staphylococcus lugdunensis obtained from complicated skin and skin structure infections by agar dilution method
[8] = Antibacterial activity against Streptococcus sp. 'group G' obtained from complicated skin and skin structure infections by agar dilution method
[9] = system: Staphylococcus; test: Antibacterial activity against methicillin-susceptible, coagulase-negative Staphylococcus obtained from complicated skin and skin structure infections by agar dilution method
[10] = Antibacterial activity against Streptococcus sp. 'group C' obtained from complicated skin and skin structure infections by agar dilution method
[11] = system: Staphylococcus aureus; test: Antibacterial activity against methicillin susceptible Staphylococcus aureus obtained from complicated skin and skin structure infections by agar dilution method
[12] = system: Enterococcus faecium; test: Antibacterial activity against Enterococcus faecium obtained from complicated skin and skin structure infections by agar dilution method
[13] = system: Enterococcus faecalis; test: Antibacterial activity against Enterococcus faecalis obtained from complicated skin and skin structure infections by agar dilution method
[14] = system: Staphylococcus aureus; test: Antibacterial activity against methicillin resistant Staphylococcus aureus obtained from complicated skin and skin structure infections by agar dilution method
[15] = system: Aerococcus viridans; test: Antibacterial activity against Aerococcus viridans obtained from complicated skin and skin structure infections by agar dilution method
[16] = system: Staphylococcus warneri; test: Antibacterial activity against coagulase-negative Staphylococcus warneri obtained from complicated skin and skin structure infections by agar dilution method
[17] = system: Streptococcus mitis; test: Antibacterial activity against Streptococcus mitis obtained from complicated skin and skin structure infections by agar dilution method
[18] = system: Mammaliicoccus sciuri; test: Antibacterial activity against coagulase-negative Staphylococcus sciuri obtained from complicated skin and skin structure infections by agar dilution method
[19] = system: Staphylococcus capitis; test: Antibacterial activity against coagulase-negative Staphylococcus capitis obtained from complicated skin and skin structure infections by agar dilution method
[20] = system: Staphylococcus haemolyticus; test: Antibacterial activity against coagulase-negative Staphylococcus haemolyticus obtained from complicated skin and skin structure infections by agar dilution method
[21] = system: Streptococcus pyogenes; test: Antibacterial activity against Streptococcus pyogenes obtained from complicated skin and skin structure infections by agar dilution method
[22] = system: Bacillus; test: Antibacterial activity against Bacillus spp. obtained from complicated skin and skin structure infections by agar dilution method
[23] = system: Staphylococcus epidermidis; test: Antibacterial activity against coagulase-negative Staphylococcus epidermidis obtained from complicated skin and skin structure infections by agar dilution method
[24] = system: Staphylococcus lugdunensis; test: Antibacterial activity against methicillin-resistant, oxacillin-susceptible, coagulase-negative, mecA-positive Staphylococcus lugdunensis obtained from complicated skin and skin structure infections by agar dilution method
[25] = system: Gemella; test: Antibacterial activity against Gemella spp. obtained from complicated skin and skin structure infections by agar dilution method
[26] = system: Micrococcus; test: Antibacterial activity against Micrococcus spp. obtained from complicated skin and skin structure infections by agar dilution method
[27] = system: Staphylococcus saprophyticus; test: Antibacterial activity against coagulase-negative Staphylococcus saprophyticus obtained from complicated skin and skin structure infections by agar dilution method
[28] = system: Streptococcus agalactiae; test: Antibacterial activity against Streptococcus agalactiae obtained from complicated skin and skin structure infections by agar dilution method
[29] = system: Gemella morbillorum; test: Antibacterial activity against Gemella morbillorum obtained from complicated skin and skin structure infections […]

## CC(=O)NC[C@H]1CN(c2ccc(N3CCOCC3)c(F)c2)C(=O)O1 [LINEZOLID]
[1]
  MIC50: 1 µg/mL (≈ 2.96 µM)
  MIC90: 1 µg/mL (≈ 2.96 µM)
[2]
  MIC50: 1 µg/mL (≈ 2.96 µM)
  MIC90: 1 µg/mL (≈ 2.96 µM)
[3]
  MIC50: ≤ 0.06 µg/mL
  MIC90: 0.06 µg/mL (≈ 0.178 µM)
[4]
  MIC50: 1 µg/mL (≈ 2.96 µM)
  MIC90: 1 µg/mL (≈ 2.96 µM)
[5]
  MIC50: 1 µg/mL (≈ 2.96 µM)
  MIC90: 2 µg/mL (≈ 5.93 µM)
[6]
  MIC50: 2 µg/mL (≈ 5.93 µM)
  MIC90: 2 µg/mL (≈ 5.93 µM)
[7]
  MIC50: 1 µg/mL (≈ 2.96 µM)
  MIC90: 1 µg/mL (≈ 2.96 µM)
[8]
  MIC: 1 µg/mL (≈ 2.96 µM)
  MIC50: 1 µg/mL (≈ 2.96 µM)
  MIC90: 1 µg/mL (≈ 2.96 µM)
[9]
  MIC50: 1 µg/mL (≈ 2.96 µM)
  MIC90: 1 µg/mL (≈ 2.96 µM)
[10]
  MIC50: 1 µg/mL (≈ 2.96 µM)
  MIC90: 2 µg/mL (≈ 5.93 µM)
[11]
  MIC50: 2 µg/mL (≈ 5.93 µM)
  MIC90: 2 µg/mL (≈ 5.93 µM)
[12]
  MIC: 2 µg/mL (≈ 5.93 µM)
  MIC50: 2 µg/mL (≈ 5.93 µM)
[13]
  MIC50: 1 µg/mL (≈ 2.96 µM)
  MIC90: 2 µg/mL (≈ 5.93 µM)
[14]
  MIC50: 2 µg/mL (≈ 5.93 µM)
  MIC90: 2 µg/mL (≈ 5.93 µM)
[15]
  MIC50: 1 µg/mL (≈ 2.96 µM)
  MIC90: 2 µg/mL (≈ 5.93 µM)
[16]
  MIC50: 1 µg/mL (≈ 2.96 µM)
  MIC90: 1 µg/mL (≈ 2.96 µM)
[17]
  MIC50: ≤ 0.06 µg/mL
  MIC90: 0.06 µg/mL (≈ 0.178 µM)
[18]
  MIC50: 1 µg/mL (≈ 2.96 µM)
  MIC90: 1 µg/mL (≈ 2.96 µM)
[19]
  MIC50: 1 µg/mL (≈ 2.96 µM)
  MIC90: 1 µg/mL (≈ 2.96 µM)
[20]
  MIC50: 1 µg/mL (≈ 2.96 µM)
  MIC90: 1 µg/mL (≈ 2.96 µM)
[21]
  MIC50: 1 µg/mL (≈ 2.96 µM)
  MIC90: 1 µg/mL (≈ 2.96 µM)
[22]
  MIC50: 1 µg/mL (≈ 2.96 µM)
  MIC90: 2 µg/mL (≈ 5.93 µM)
[23]
  MIC50: 1 µg/mL (≈ 2.96 µM)
  MIC90: 1 µg/mL (≈ 2.96 µM)
[24]
  MIC50: 1 µg/mL (≈ 2.96 µM)
  MIC90: 1 µg/mL (≈ 2.96 µM)
[25]
  MIC50: 1 µg/mL (≈ 2.96 µM)
  MIC90: 2 µg/mL (≈ 5.93 µM)
[26]
  MIC50: 1 µg/mL (≈ 2.96 µM)
  MIC90: 2 µg/mL (≈ 5.93 µM)
[27]
  MIC50: 1 µg/mL (≈ 2.96 µM)
  MIC90: 1 µg/mL (≈ 2.96 µM)
[28]
  MIC50: 1 µg/mL (≈ 2.96 µM)
  MIC90: 1 µg/mL (≈ 2.96 µM)
[29]
  MIC50: 1 µg/mL (≈ 2.96 µM)
  MIC90: 2 µg/mL (≈ 5.93 µM)

## CC1(C)S[C@@H]2[C@H](NC(=O)Cc3ccccc3)C(=O)N2[C@H]1C(=O)O [PENICILLIN G]
[1]
  MIC: ≤ 0.03 µg/mL
  MIC50: ≤ 0.03 µg/mL
  MIC90: 0.12 µg/mL (≈ 0.359 µM)
[3]
  MIC50: 0.5 µg/mL (≈ 1.5 µM)
  MIC90: 0.5 µg/mL (≈ 1.5 µM)
[5]
  MIC50: ≤ 0.03 µg/mL
  MIC90: 1 µg/mL (≈ 2.99 µM)
[8]
  MIC: ≤ 0.03 µg/mL
  MIC50: ≤ 0.03 µg/mL
  MIC90: ≤ 0.03 µg/mL
[10]
  MIC: ≤ 0.03 µg/mL
  MIC50: ≤ 0.03 µg/mL
  MIC90: 0.06 µg/mL (≈ 0.179 µM)
[12]
  MIC: > 4 µg/mL
  MIC50: > 4 µg/mL
[13]
  MIC: 2 µg/mL (≈ 5.98 µM)
  MIC50: 2 µg/mL (≈ 5.98 µM)
  MIC90: 4 µg/mL (≈ 12 µM)
[15]
  MIC50: ≤ 0.03 µg/mL
  MIC90: 1 µg/mL (≈ 2.99 µM)
[17]
  MIC50: 0.5 µg/mL (≈ 1.5 µM)
  MIC90: 0.5 µg/mL (≈ 1.5 µM)
[21]
  MIC: ≤ 0.03 µg/mL
  MIC50: ≤ 0.03 µg/mL
  MIC90: ≤ 0.03 µg/mL
[22]
  MIC50: ≤ 0.03 µg/mL
  MIC90: 1 µg/mL (≈ 2.99 µM)
[25]
  MIC50: ≤ 0.03 µg/mL
  MIC90: 1 µg/mL (≈ 2.99 µM)
[26]
  MIC50: ≤ 0.03 µg/mL
  MIC90: 1 µg/mL (≈ 2.99 µM)
[28]
  MIC50: 0.06 µg/mL (≈ 0.179 µM)
  MIC90: 0.06 µg/mL (≈ 0.179 µM)
[29]
  MIC50: ≤ 0.03 µg/mL
  MIC90: 1 µg/mL (≈ 2.99 µM)
